Reference: the supplement of paper PMC10331698
± gives the standard deviation of the averaged measurements.

Columns and labels:
Assay in all cases: level (log10 ratio to DMSO vehicle control); higher = higher biomarker level / cell amount than vehicle control
Conditions in all cases: in DMSO
[1] = compound: O=C(O)C(F)(F)C(F)(F)C(F)(F)C(F)(F)C(F)(F)C(F)(F)C(F)(F)C(F)(F)C(F)(F)C(F)F [11-H-Perfluoroundecanoic acid]
Experimental: (§1)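 BioMAP Diversity Plus panel of 12 human primary cell co-culture systems (3C, 4H, LPS, SAg, BT, BF4T, BE3C, CASM3C, HDF3CGF, KF3CT, MyoF, Mphg). Compounds were added 1 h before stimulation and left for 24 h (MyoF 48 h; BT 72 h for soluble read-outs or 6 d for IgG). Biomarkers were read by ELISA, cytotoxicity by SRB, PBMC viability and proliferation by Alamar Blue. Each well value was divided by the mean of 8 DMSO control wells on the same plate and log10 transformed; duplicate blinded samples were tested at 4 concentrations.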

[2] = compound: NC(=O)C(F)(F)C(F)(F)C(F)(F)C(F)F
Experimental: as §1

[3] = compound: FC(F)(F)C(F)(F)C(F)(F)C(F)(F)C(F)(F)C(F)(F)C(F)(F)I [1-Iodopentadecafluoroheptane]
Experimental: as §1

[4] = compound: O=S(=O)(F)C(F)(F)C(F)(F)C(F)(F)C(F)(F)C(F)(F)C(F)(F)C(F)(F)C(F)(F)F [Perfluorooctanesulfonyl fluoride]
Experimental: as §1

[5] = compound: NS(=O)(=O)C(F)(F)C(F)(F)C(F)(F)C(F)(F)C(F)(F)C(F)(F)F [Perfluorohexanesulfonamide]
Experimental: as §1

Octafluoroadipamide = compound: NC(=O)C(F)(F)C(F)(F)C(F)(F)C(F)(F)C(N)=O [Octafluoroadipamide]
Experimental: as §1

Test System | level (log10) ([1]; 6700 nM) | level (log10) ([1]; 20000 nM) | level (log10) ([2]; 6700 nM) | level (log10) ([2]; 20000 nM) | level (log10) ([2]; 60000 nM) | level (log10) ([3]; 6700 nM) | level (log10) ([3]; 20000 nM) | level (log10) ([4]; 6700 nM) | level (log10) ([4]; 20000 nM) | level (log10) ([4]; 60000 nM) | level (log10) ([5]; 6700 nM) | level (log10) ([5]; 20000 nM) | level (log10) ([5]; 60000 nM) | level (log10) (Octafluoroadipamide; 6700 nM) | level (log10) (Octafluoroadipamide; 20000 nM) | level (log10) (Octafluoroadipamide; 60000 nM)
SAg:CCL2/MCP-1 | -0.0105 ± 0.022 | -0.0125 ± 0.0035 | -0.0145 ± 0.026 | -0.024 ± 0.013 | 0.0115 ± 0.03 | 0.02 ± 0.05 | 0.0105 ± 0.033 | 0.0135 ± 0.0035 | -0.018 ± 0.0042 | 0.0035 ± 0.029 | -0.0065 ± 0.00071 | -0.0185 ± 0.0035 | -0.085 ± 0.027 | -0.001 ± 0.0071 | 0.002 ± 0.0014 | 0.0105 ± 0.016
LPS:CXCL8/IL-8 | -0.0065 ± 0.023 | 0.016 ± 0.011 | -0.0055 ± 0.0035 | -0.0025 ± 0.035 | 0.016 ± 0.12 | 0.026 ± 0.055 | 0.0325 ± 0.005 | 0.012 ± 0.027 | 0.011 ± 0.0099 | -0.0015 ± 0.005 | -0.005 ± 0.0071 | -0.0015 ± 0.013 | -0.034 ± 0.0071 | -0.0035 ± 0.033 | 0.007 ± 0.0085 | 0.01 ± 0.013
BF4T:Keratin 8/18 | -0.0025 ± 0.011 | -0.062 ± 0.0085 | 0.004 ± 0.042 | 0.005 ± 0.011 | 0.0135 ± 0.026 | -0.031 ± 0.021 | -0.054 ± 0.0028 | 0.0285 ± 0.033 | 0.003 ± 0.016 | 0.0335 ± 0.0092 | -0.01 ± 0.033 | -0.019 ± 0.017 | -0.065 ± 0.067 | -0.0025 ± 0.0092 | -0.004 ± 0.0014 | 0.017 ± 0.033
BT:sIL-2 | -0.0265 ± 0.013 | -0.008 ± 0.083 | 0.002 ± 0.058 | -0.056 ± 0.051 | 0.04 ± 0.0099 | -0.113 ± 0.07 | -0.017 ± 0.081 | -0.038 ± 0.058 | -0.001 ± 0.042 | 0 ± 0.1 | -0.018 ± 0.11 | -0.0415 ± 0.015 | 0.0705 ± 0.00071 | 0.137 ± 0.073 | 0.116 ± 0.061 | 0.126 ± 0.027
LPS:sPGE2 | 0.018 ± 0.023 | -0.006 ± 0.042 | -0.0045 ± 0.028 | -0.0005 ± 0.005 | 0.0315 ± 0.036 | -0.062 ± 0.013 | -0.103 ± 0.027 | 0.0045 ± 0.039 | -0.0015 ± 0.005 | -0.0265 ± 0.056 | 0.088 ± 0.014 | 0.13 ± 0.032 | 0.207 ± 0.046 | 0.083 ± 0.037 | -0.04 ± 0.018 | -0.0165 ± 0.026
BT:sIL-17F | 0.0115 ± 0.0092 | -0.0225 ± 0.049 | 0.0335 ± 0.019 | -0.0275 ± 0.015 | -0.018 ± 0.023 | -0.0435 ± 0.049 | -0.0545 ± 0.16 | -0.0145 ± 0.032 | -0.0345 ± 0.079 | 0.035 ± 0.12 | -0.0125 ± 0.11 | 0.054 ± 0.041 | -0.13 ± 0.027 | 0.0465 ± 0.057 | 0.073 ± 0.05 | 0.06 ± 0.082
BF4T:CD54/ICAM-1 | -0.0375 ± 0.0021 | -0.104 ± 0.016 | -0.0105 ± 0.015 | -0.0095 ± 0.022 | -0.0045 ± 0.0021 | 0.004 ± 0.011 | -0.0025 ± 0.013 | -0.002 ± 0.0014 | -0.006 | -0.0045 ± 0.0021 | -0.015 ± 0.0014 | -0.0375 ± 0.0064 | -0.0645 ± 0.0078 | -0.015 ± 0.023 | -0.017 ± 0.021 | 0.009 ± 0.016
4H:VEGFR2 | -0.0245 ± 0.032 | 0.001 ± 0.047 | 0 ± 0.0042 | -0.006 ± 0.0099 | -0.001 ± 0.054 | 0.0055 ± 0.0092 | 0.06 ± 0.024 | -0.001 ± 0.03 | -0.01 ± 0.021 | 0 ± 0.027 | -0.008 ± 0.023 | -0.023 ± 0.013 | -0.0965 ± 0.022 | 0.012 ± 0.05 | 0.025 ± 0.0057 | 0.0225 ± 0.03
LPS:M-CSF | -0.0035 ± 0.018 | 0.012 ± 0.038 | -0.013 ± 0.028 | -0.011 ± 0.0014 | 0.0065 ± 0.023 | 0.023 ± 0.047 | 0.0155 ± 0.086 | -0.005 ± 0.021 | 0.0045 ± 0.0092 | 0.006 ± 0.017 | -0.022 ± 0.016 | -0.0155 ± 0.0021 | -0.081 ± 0.0057 | -0.029 ± 0.14 | 0.0205 ± 0.052 | 0.023 ± 0.047
LPS:CD141/Thrombomodulin | 0.0875 ± 0.057 | 0.051 ± 0.092 | -0.037 ± 0.023 | -0.0225 ± 0.028 | -0.02 ± 0.021 | 0.0215 ± 0.023 | -0.024 ± 0.075 | 0.0105 ± 0.025 | 0.0045 ± 0.0078 | 0.0055 ± 0.012 | -0.0155 ± 0.0092 | -0.017 ± 0.017 | -0.0095 ± 0.028 | -0.029 ± 0.1 | 0.014 ± 0.076 | 0.0355 ± 0.056
SAg:CD38 | -0.0045 ± 0.023 | 0.004 ± 0.04 | -0.034 ± 0.014 | -0.027 ± 0.02 | -0.0295 ± 0.0064 | -0.0085 ± 0.029 | -0.005 ± 0.024 | -0.0015 ± 0.039 | 0.0035 ± 0.0092 | 0.0145 ± 0.005 | 0.0495 ± 0.056 | 0.0225 ± 0.061 | -0.141 ± 0.12 | 0.0005 ± 0.00071 | 0.0005 ± 0.018 | 0.0065 ± 0.0021
BF4T:CD106/VCAM-1 | -0.062 ± 0.0057 | -0.148 ± 0.079 | -0.015 ± 0.0028 | -0.014 ± 0.0042 | -0.003 ± 0.023 | -0.005 ± 0.011 | -0.031 ± 0.0028 | -0.007 | -0.0355 ± 0.0021 | -0.044 ± 0.031 | -0.0295 ± 0.022 | -0.104 ± 0.0099 | -0.198 ± 0.013 | -0.0265 ± 0.021 | -0.0215 ± 0.016 | 0.0155 ± 0.061
BF4T:SRB | -0.012 ± 0.0014 | -0.103 ± 0.0092 | -0.0075 ± 0.00071 | -0.0125 ± 0.011 | -0.0025 ± 0.0078 | -0.0085 ± 0.0092 | -0.008 ± 0.0014 | -0.0025 ± 0.0035 | -0.002 ± 0.0042 | 0.0145 ± 0.025 | -0.005 ± 0.0042 | -0.012 ± 0.0042 | -0.0345 ± 0.005 | -0.006 ± 0.0071 | -0.002 ± 0.0028 | 0.001 ± 0.0071
BT:Secreted IgG | 0.007 ± 0.021 | 0.0175 ± 0.0092 | 0.0115 ± 0.073 | 0.026 ± 0.0085 | -0.0005 ± 0.026 | -0.006 ± 0.05 | -0.01 ± 0.044 | 0.0025 ± 0.026 | 0.0185 ± 0.0035 | 0.004 ± 0.03 | -0.024 ± 0.016 | -0.0005 ± 0.046 | -0.133 ± 0.037 | 0.0345 ± 0.018 | 0.037 ± 0.0028 | 0.0215 ± 0.0078
BF4T:tPA | -0.131 ± 0.019 | -0.133 | -0.0005 ± 0.021 | -0.0115 ± 0.022 | 0.0125 ± 0.005 | 0.022 ± 0.025 | -0.0085 ± 0.016 | -0.003 ± 0.027 | -0.0155 ± 0.016 | -0.008 ± 0.0099 | 0.004 ± 0.0028 | -0.012 ± 0.0085 | -0.075 ± 0.016 | -0.0475 ± 0.035 | -0.047 ± 0.045 | -0.023 ± 0.081
SAg:CD62E/E-Selectin | 0.007 ± 0.021 | 0.0035 ± 0.005 | 0.005 ± 0.04 | -0.0135 ± 0.039 | 0.0155 ± 0.036 | -0.0415 ± 0.056 | -0.008 ± 0.044 | 0.02 ± 0.05 | -0.0115 ± 0.0035 | -0.0035 ± 0.019 | -0.0155 ± 0.012 | -0.05 ± 0.035 | -0.178 ± 0.034 | 0.0015 ± 0.0078 | 0.0065 ± 0.022 | 0.0185 ± 0.028
BT:sIL-17A | 0.003 ± 0.0057 | -0.0485 ± 0.061 | 0.059 ± 0.033 | 0.025 ± 0.19 | -0.0885 ± 0.32 | -0.213 ± 0.3 | -0.112 ± 0.31 | -0.047 ± 0.098 | -0.176 ± 0.021 | -0.112 ± 0.021 | -0.155 ± 0.069 | -0.072 ± 0.069 | -0.026 ± 0.051 | -0.107 ± 0.018 | -0.0535 ± 0.098 | 0.0055 ± 0.025
SAg:PBMC Cytotoxicity | 0.002 ± 0.045 | 0.0035 ± 0.021 | 0.018 ± 0.016 | -0.008 ± 0.011 | 0.0425 ± 0.067 | -0.0165 ± 0.028 | 0.0265 ± 0.026 | -0.0155 ± 0.029 | 0.0105 ± 0.022 | 0.011 ± 0.027 | 0 ± 0.05 | 0.0415 ± 0.021 | 0.121 ± 0.023 | 0.004 ± 0.014 | -0.0095 ± 0.0021 | 0.01 ± 0.027
BF4T:MMP-1 | -0.0115 ± 0.013 | 0.0005 ± 0.026 | 0.003 ± 0.0085 | -0.003 ± 0.0085 | 0.0075 ± 0.0035 | -0.0055 ± 0.018 | 0.0005 ± 0.0035 | -0.0075 ± 0.00071 | -0.0115 ± 0.005 | 0.001 ± 0.0071 | 0 ± 0.0014 | -0.012 ± 0.0042 | -0.018 ± 0.0014 | -0.006 ± 0.0099 | -0.0095 ± 0.0021 | 0.004 ± 0.016
